Literature values in patent US20240024348A1, “METHODS AND COMPOSITIONS FOR THE TREATMENT OF GLAUCOMA AND RELATED CONDITIONS” (Ophthalmic Therapeutic Innovation, priority 2022, published 2024).
Entries after “also recorded” stand apart in the source; their conditions may differ. Like-named read-outs stand apart in the source and are kept apart here.

Assays:
[1] = test system: POAG/OH patients with Latanoprost poor responders; settings: cited from earlier work
[2] = test system: Dutch-belted pigmented and normotensive rabbit eyes; settings: single dose 0.6% eye drop, cited from earlier work
[3] = test system: patients with POAG/OH; settings: cited from earlier work; for IOP reduction: Ph2, 1.5% BID
[4] = test system: NAION mice model; settings: cited from earlier work
[5] = test system: human TM cell; settings: human TM cell culture; cited from earlier work
[6] = test system: young and aged C57 mice; settings: 7 days, cited from earlier work
[7] = test system: patients or human subjects; settings: cited from earlier work; for conjunctiva hyperemia: eye drops, clinical trials
[8] = test system: ischemia-reperfusion rodent model; settings: cited from earlier work
[9] = test system: light damaged rat models; settings: cited from earlier work
[10] = test system: patients; settings: 3% QD and 6% QD with 0.005% QD Lantanoprost; cited from earlier work
[11] = test system: aged mice; settings: 6% treatment, vs placebo treated eyes; cited from earlier work
[12] = test system: rat; settings: cited from earlier work
[13] = test system: patient with NTG; settings: cited from earlier work
[14] = test system: human TM cell; settings: high concentration (10 ug/mL); cited from earlier work
[15] = test system: patients with refractory glaucoma; settings: two individual patients with refractory glaucoma; cited from earlier work
[16] = human donor eyes; cited from earlier work

Trabodenoson
IOP time course ([1]; 1.5% BID 8 weeks then 3.0% QD 4 weeks, add-on to Latanoprost, 12 weeks): robust and continuous IOP improvement over the course of 12 weeks; also recorded: robust and incremental IOP improvement over a course of 12-week treatment time
effectiveness POAG vs OH ([1]; Lantanoprost poor responders): more effective in patients with POAG than with OH
IOP reduction from the baseline ([2]; at 2 hours): 25%-27%
time of IOP return to the baseline [2]: 6 h
IOP dose response curve (IOP reduction from baseline IOP) ([3]; 14-Day Phase 2 dose escalation, 0.15%, 0.3%, 0.6%, 1.5% BID): 0.6% BID peaked at the top
IOP reduction ([3]; day 14, baseline IOP>21 mmHg): 6.5 mmHg
IOP reduction ([3]; day 14, baseline IOP>25 mmHg): > 7 mmHg
IOP improvement, day 28 vs Day 14 ([3]; Phase 2, 1.5% BID eye drops, baseline IOP>21 mmHg, in 2 weeks): 0.9 mmHg
IOP reduction POAG vs OH ([3]; Phase 2, 1.5% BID, early-stage population): higher IOP reduction in patients with POAG than that with OH
IOP reduction from the diurnal IOP at day -1 ([3]; Phase 2 dose escalation, Day 14): 1.5% BID is more effective than 0.15% BID, 0.3% BID, 0.6% BID at Day 14
Phase 3 IOP endpoint ([3]; Phase 3 clinical trials, 3 months): failed to meet the IOP endpoint at 3 months
IOP time course ([3]; Phase 3 monotherapy, 6% QD, 3 months, vs placebo): incremental increase of the IOP reduction; also recorded: continuous IOP improvement over a course of 3 months with clinical significance compared to placebo
maximal IOP reduction ([3]; eye drops 1.5% BID, day 28 (4 weeks), early stage POAG/OH): 6-7 mmHg
time before reaching a steady state ([3]; eye drops, early stage POAG/OH with very mild damage): more than 3 months
axon loss and myelination damage of optic nerve (EM) ([4]; 6% eye drops BID, vs placebo control): significant reduction of the axon loss and myelination damage
RGC neural protection ([4]; NAION mice model): potent neural protectant for RGC cell rescue
MMP-14 expression [5]: upregulating MMP-14 expression
collagen IV and fibronectin [5]: downregulation of collagen IV and fibronectin
IOP reduction over time ([6]; 3% QD, young C57 mice): sustained over 7 days
IOP lowering effect over time ([6]; 6% QD, aged C57 mice): slowly diminished at day 7
systemic clinical safety and ocular tolerability ([7]; 819 subjects, 2 weeks to 3 months, 0.15% BID to 6% QD, up to 18% single dose): excellent systemic clinical safety and ocular tolerability
conjunctiva hyperemia [7]: 2.56%
protection of RGC and outer layer photoreceptors [8]: demonstrated neural protection for both RGC inner layer of the neurons and the outer layer of neurons (photoreceptors); also recorded: more potent in rescuing and protecting the RGC and outer layer photoreceptors from apoptosis
photoreceptor cell loss [9]: rescuing photoreceptor cell loss
IOP efficacy of combination vs Lantanoprost alone [10]: less effective than 0.005% QD Lantanoprost alone
TM morphology / ECM [11]: TM mesh pores opening up and ECM remodeling with enlarged ECM space
heart rate [12]: reduces the heart rate in rat

O=C(CCC/C=C\C[C@@H]1[C@@H](CC[C@@H](O)CCc2ccccc2)[C@H](O)C[C@@H]1O)OCCCCO[N+](=O)[O-] [Vyzulta, Latanoprost Bunod]
IOP improvement ([13]; during the first 12-week of 12-month study, Japanese population): less than 1.0 mmHg
IOP improvement ([13]; within the first 12-week of 12-month study): ~0.6 mmmHg

Cc1ccc(C(=O)OCc2ccc([C@@H](CN)C(=O)Nc3ccc4cnccc4c3)cc2)c(C)c1 [Rhopressa, reference compound]
conjunctiva hyperemia [7]: 50%

CC(C)OC(=O)CCC/C=C\C[C@@H]1[C@@H](CC[C@@H](O)CCc2ccccc2)[C@H](O)C[C@@H]1O [Latanoprost]
MMP-9 expression [14]: upregulates MMP-9 expression

CCCCCCCC(=O)CC[C@@H]1[C@@H](C/C=C\CCCC(=O)OC(C)C)[C@@H](O)C[C@H]1O [Rescula]
IOP profile [15]: slow mode and accumulative improvement over time

CCNC(=O)CCC/C=C\C[C@@H]1[C@@H](/C=C/[C@@H](O)CCc2ccccc2)[C@H](O)C[C@@H]1O [Bimatoprost]
MMP-9 expression [14]: upregulates MMP-9 expression

Brc1c(NC2=NCCN2)ccc2nccnc12 [Brimonidine, reference compound]
protection of RGC and outer layer photoreceptors [8]: lacks effects toward the outer layer photoreceptor cells
protection of RGC and outer layer photoreceptors ([8]; listed as brimonidine): did not protect photoreceptor loss

B1: MMP-2: matrix metalloproteinase (protein, UniProt P08253 110-660, looked up)
72 kDa type IV collagenase: YNFFPRKPKWDKNQITYRIIGYTPDLDPETVDDAFARAFQVWSDVTPLRFSRIHDGEADIMINFGRWEHGDGYPFDGKDGLLAHAFAPGTGVGGDSHFDDDELWTLGEGQVVRVKYGNADGEYCKFPFLFNGKEYNSCTDTGRSDGFLWCSTTYNFEKDGKYGFCPHEALFTMGGNAEGQPCKFPFRFQGTSYDSCTTEGRTDGYRWCGTTEDYDRDKKYGFCPETAMSTVGGNSEGAPCVFPFTFLGNKYESCTSAGRSDGKMWCATTANYDDDRKWGFCPDQGYSLFLVAAHEFGHAMGLEHSQDPGALMAPIYTYTKNFRLSQDDIKGIQELYGASPDIDLGTGPTPTLGPVTPEICKQDIVFDGIAQIRGEIFFFKDRFIWRTVTPRDKPMGPLLVATFWPELPEKIDAVYEAPQEEKAVFFAGNEYWIYSASTLERGYPKPLTSLGLPPDVQRVDAAFNWSKNKKTYIFAGDKFWRYNEVKKKMDPGFPKLIADAWNAIPDNLDAVVDLQGGGHSYFFKGAYYLKLENQSLKSVKFGSIKSDWLGC
hydraulic conductance of Bruch's membrane [16]: increases hydraulic conductance
